What was measured:
[1] = Pharmacokinetic parameters in Sprague-Dawley rats; parameters: AUC(0-t): concentration or dose not given beside the values; conditions: rat, in vivo
Experimental: Various pharmacokinetic parameters of the compounds described herein were measured in Sprague-Dawley rats.

[2] = Human liver microsome stability; type: in vitro ADME; conditions: human liver microsomes; read-out: Human liver microsome t1/2
Serum protein binding = type: in vitro ADME; conditions: rat
mice treated with MPTP [3] = assay: Mouse MPTP neurotoxicity model; type: in vivo; conditions: for dopamine levels (protection of dopamine-secreting neurons): HPLC-ECD, FIG. 4; for pole test latency: day 14, FIG. 3, control about 5 seconds, MPTP about 30
Experimental: Certain compounds of the present invention were evaluated using the MPTP neurotoxicity model. MPTP causes oxidative stress, which in turn causes c-Abl1 and/or c-Abl2 phosphorylation in the SNpc of mice treated with MPTP. MPTP administration according to this model produces a reliable, irreversible loss of DA neurons 7 days after the last injection, similar to that observed in PD. MPTP causes greater loss of DA neurons in SNpc and degeneration of DA nerve terminals in the caudate putamen. Many of the cell death signaling events observed in PD postmortem tissue are present in the MPTP model including oxidative stress, nitrosative stress, c-Abl activation, Parkin inactivation and PARIS and AIMP2 elevation and PARP activation. […] Because the model is relatively rapid, this model was used to assess dosing for future studies, and as a preliminary measure of efficacy.
The study design is depicted in FIG. 1. […] Wild type mice (n=5 per group) were divided into 4 treatment groups as follows: saline, MPTP, Drug and MPTP+Drug. Saline and MPTP groups were pre-treated with drug vehicle (unbuffered water) (20 animals total). Drug and MPTP+Drug groups received the test compounds for 6 days administered by oral gavage daily. On the seventh day, the saline and Drug groups received four intra-peritoneal (i.p.) injections of saline at 2 h intervals. The MPTP and MPTP+Drug groups received four intraperitoneal (i.p.) injections of MPTP·HCl (20 mg/kg free base) at 2 hr intervals. After the MPTP injection day, mice were treated for an additional 6 days with saline or an ATK inhibitor of the present invention. Mice in the saline and MPTP only groups received saline vehicle while the Drug and MPTP+Drug groups received an additional week of drug treatment. On the 14th day, mice were given a pole test, then sacrificed. Brain samples were processed for analysis of biogenic amine concentrations, including dopamine (DA), by high-performance liquid chromatography with electrochemical detection (HPLC-ECD). Loss of DA and its metabolites in the striatum is a consistently reliable indication of loss of DA neurons in the SNpc.

ABL = ABL (Homo sapiens, UniProt P00519); assay: Inhibition profile at 500 nM: ABL / Abl1; type: biochemical; conditions: 500 nM test compound; Table 1
Chain of ABL (P00519 whole entry): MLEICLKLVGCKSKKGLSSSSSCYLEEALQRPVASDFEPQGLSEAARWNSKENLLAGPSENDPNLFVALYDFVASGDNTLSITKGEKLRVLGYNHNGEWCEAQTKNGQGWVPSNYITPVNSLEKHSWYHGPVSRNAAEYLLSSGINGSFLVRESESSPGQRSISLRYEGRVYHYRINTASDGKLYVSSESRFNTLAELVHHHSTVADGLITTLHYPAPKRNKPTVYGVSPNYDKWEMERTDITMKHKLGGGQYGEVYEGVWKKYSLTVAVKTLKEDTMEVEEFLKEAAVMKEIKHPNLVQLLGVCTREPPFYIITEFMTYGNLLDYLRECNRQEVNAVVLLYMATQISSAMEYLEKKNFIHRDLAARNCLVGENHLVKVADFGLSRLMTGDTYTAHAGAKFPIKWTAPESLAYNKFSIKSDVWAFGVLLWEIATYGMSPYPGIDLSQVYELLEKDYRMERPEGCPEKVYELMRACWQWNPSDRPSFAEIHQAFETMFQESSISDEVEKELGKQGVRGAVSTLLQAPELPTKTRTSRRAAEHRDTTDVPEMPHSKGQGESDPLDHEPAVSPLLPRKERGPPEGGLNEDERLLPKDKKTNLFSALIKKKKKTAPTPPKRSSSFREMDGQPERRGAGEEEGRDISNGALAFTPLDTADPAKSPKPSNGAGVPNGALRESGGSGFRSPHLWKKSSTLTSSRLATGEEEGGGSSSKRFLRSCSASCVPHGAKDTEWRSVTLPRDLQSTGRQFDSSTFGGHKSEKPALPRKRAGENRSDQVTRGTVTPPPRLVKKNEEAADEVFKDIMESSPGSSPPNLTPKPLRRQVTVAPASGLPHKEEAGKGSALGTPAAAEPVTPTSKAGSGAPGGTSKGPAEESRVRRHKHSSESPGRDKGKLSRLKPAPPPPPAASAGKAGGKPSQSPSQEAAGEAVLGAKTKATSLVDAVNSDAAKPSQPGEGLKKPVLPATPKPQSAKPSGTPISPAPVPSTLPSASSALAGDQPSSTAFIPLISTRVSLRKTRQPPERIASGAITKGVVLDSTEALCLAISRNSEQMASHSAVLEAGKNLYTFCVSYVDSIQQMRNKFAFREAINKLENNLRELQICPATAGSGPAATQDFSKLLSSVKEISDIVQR
Experimental: (§1) Then enzyme substrate is added as 10 μl of 2.5×FAM-labeled peptide+ATP solution to each well of the 384-well assay plate The reaction is allowed to proceed at 28° C. and quenched with the addition of 25 μl of stop buffer. The release of fluorescent FAM is quantitated as Percent inhibition=(max−conversion)/(max−min)*100.sp; “max” stands for DMSO control; “min” stands for low control. Convert conversion values to inhibition values. Percent inhibition=(max−conversion)/(max−min)*100. “max” stands for DMSO control; “min” stands for low control.

ARG/Abl2 = ARG/Abl2 (Homo sapiens, UniProt P42684); assay: Inhibition profile at 500 nM: ARG/Abl2; type: biochemical; conditions: 500 nM test compound; Table 1
Chain of ARG/Abl2 (P42684 whole entry): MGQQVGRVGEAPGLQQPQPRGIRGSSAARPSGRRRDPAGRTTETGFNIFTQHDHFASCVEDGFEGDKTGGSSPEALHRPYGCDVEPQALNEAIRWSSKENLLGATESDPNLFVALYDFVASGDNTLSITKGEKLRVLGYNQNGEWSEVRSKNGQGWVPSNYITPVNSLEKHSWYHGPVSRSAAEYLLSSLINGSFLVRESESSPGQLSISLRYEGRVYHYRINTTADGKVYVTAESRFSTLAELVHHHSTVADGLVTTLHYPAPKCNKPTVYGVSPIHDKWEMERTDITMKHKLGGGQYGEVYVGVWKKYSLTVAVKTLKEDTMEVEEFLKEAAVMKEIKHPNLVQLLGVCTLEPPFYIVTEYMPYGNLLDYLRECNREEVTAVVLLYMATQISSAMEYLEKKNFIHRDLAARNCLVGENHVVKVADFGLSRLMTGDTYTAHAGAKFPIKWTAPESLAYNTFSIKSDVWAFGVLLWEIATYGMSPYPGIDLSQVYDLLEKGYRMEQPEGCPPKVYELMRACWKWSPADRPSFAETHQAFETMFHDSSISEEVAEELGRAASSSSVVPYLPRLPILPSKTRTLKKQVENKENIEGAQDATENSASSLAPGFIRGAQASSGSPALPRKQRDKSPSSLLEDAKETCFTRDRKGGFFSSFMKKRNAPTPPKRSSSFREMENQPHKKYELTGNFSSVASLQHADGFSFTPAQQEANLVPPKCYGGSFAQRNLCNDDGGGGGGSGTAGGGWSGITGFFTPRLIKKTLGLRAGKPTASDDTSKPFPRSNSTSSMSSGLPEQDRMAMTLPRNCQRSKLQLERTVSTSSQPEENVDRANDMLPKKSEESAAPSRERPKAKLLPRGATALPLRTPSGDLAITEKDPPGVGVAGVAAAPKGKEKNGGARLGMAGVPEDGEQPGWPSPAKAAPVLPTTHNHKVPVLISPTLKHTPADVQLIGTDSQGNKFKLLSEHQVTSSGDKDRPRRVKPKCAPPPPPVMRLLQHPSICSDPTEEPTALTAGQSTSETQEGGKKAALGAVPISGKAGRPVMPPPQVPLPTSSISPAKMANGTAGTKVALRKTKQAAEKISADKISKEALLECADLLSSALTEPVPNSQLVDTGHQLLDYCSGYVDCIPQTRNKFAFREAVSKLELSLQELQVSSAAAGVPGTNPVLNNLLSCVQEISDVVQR
Experimental: as §1

A53T synuclein mice = assay: Functional rescue in mutated alpha-synuclein model; type: in vivo; conditions: A53T mutant alpha-synuclein mice
Excerpt: The A53T mutant of alpha-synuclein is a clinically identified mutation that leads to hyper aggregation of alpha-synuclein in mice, and recapitulates the symptoms of Parkinson's disease such as dopaminergic neuron loss.
This effect is believed to be due to the compound blocking formation of the toxic form of A53T-alpha-synuclein by inhibiting c-Abl.

[4] = test system: Mice injected with pre-formed alpha-synuclein fibrils; assay: Functional rescue in alpha-synuclein fibril model; type: in vivo
Excerpt: Injection of pre-formed alpha-synuclein fibrils is known to induce Parkinson's-like disease in mice. […] This effect is believes to be due to the compound blocking the formation of toxic pre-formed-fibril alpha synuclein by inhibiting c-Abl.

PDGFRa = PDGFRa (Homo sapiens, UniProt P16234); assay: Inhibition profile at 500 nM: PDGFRa; type: biochemical; conditions: 500 nM test compound; Table 2; read-out: Percent inhibition PDGFRa
Chain of PDGFRa (P16234 24-1089): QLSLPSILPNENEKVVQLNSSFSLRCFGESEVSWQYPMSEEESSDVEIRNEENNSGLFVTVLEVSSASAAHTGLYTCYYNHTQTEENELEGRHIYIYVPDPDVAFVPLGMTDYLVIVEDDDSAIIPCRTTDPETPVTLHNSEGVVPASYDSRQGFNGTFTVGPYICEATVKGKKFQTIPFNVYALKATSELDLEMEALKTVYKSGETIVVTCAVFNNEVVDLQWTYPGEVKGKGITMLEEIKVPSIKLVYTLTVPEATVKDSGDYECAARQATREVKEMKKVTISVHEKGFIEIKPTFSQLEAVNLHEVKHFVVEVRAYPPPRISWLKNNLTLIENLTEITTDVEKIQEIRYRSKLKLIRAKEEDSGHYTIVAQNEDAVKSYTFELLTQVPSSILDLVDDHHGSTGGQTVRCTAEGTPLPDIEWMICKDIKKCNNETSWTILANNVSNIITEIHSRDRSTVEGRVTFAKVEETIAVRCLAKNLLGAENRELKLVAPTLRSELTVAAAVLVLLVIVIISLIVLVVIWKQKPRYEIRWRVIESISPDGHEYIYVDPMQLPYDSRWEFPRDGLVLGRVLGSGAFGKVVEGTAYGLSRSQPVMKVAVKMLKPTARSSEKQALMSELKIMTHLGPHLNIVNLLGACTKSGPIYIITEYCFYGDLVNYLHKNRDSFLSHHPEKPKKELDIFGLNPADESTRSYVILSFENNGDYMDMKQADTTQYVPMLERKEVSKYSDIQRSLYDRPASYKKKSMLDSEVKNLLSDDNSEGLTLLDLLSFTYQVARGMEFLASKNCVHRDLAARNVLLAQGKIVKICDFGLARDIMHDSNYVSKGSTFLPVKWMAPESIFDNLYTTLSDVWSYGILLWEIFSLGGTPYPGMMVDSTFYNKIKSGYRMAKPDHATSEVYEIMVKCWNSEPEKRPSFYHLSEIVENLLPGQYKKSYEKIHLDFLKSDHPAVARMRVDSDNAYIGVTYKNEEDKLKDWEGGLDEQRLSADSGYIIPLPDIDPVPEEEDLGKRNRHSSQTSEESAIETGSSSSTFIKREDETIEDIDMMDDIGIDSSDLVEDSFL
Experimental: as §1

c-Abl1 = c-Abl1 (Homo sapiens, UniProt P00519); assay: Inhibition of Abelson protein kinase c-Abl1 (FAM-labeled peptide assay, IC50); type: biochemical
Chain of c-Abl1 (P00519 whole entry): as the sequence (P00519 whole entry) above
Experimental: (§2) Mix the compounds in intermediate plate for 10 min on shaker. For the assay of enzyme inhibitions, 5 μl of each well from the intermediate plate is transferred to a 384-well plate in duplicates, 10. […] Then enzyme substrate is added as 10 μl of 2.5×FAM-labeled peptide+ATP solution to each well of the 384-well assay plate The reaction is allowed to proceed at 28° C. and quenched with the addition of 25 μl of stop buffer. The release of fluorescent FAM is quantitated as Percent inhibition=(max−conversion)/(max−min)*100. “max” stands for DMSO control; “min” stands for low control. Data are fit in XLFit excel add-in version 4.3.1 to obtain IC50 values. Equation used is: Y=Bottom+(Top−Bottom)/(1+(IC50/X)^HillSlope).

c-Abl2 = c-Abl2 (Homo sapiens, UniProt P42684); assay: Inhibition of Abelson protein kinase c-Abl2 (FAM-labeled peptide assay, IC50); type: biochemical
Chain of c-Abl2 (P42684 whole entry): as the sequence (P42684 whole entry) above
Experimental: as §2

[5] = test system: animal models of Parkinson's Disease; conditions: literature (J. Neurosci. 31(1); Scientific Reports 4:4874); cited from earlier work
mice treated with MPTP [6] = conditions: known ATK inhibitors, background statement; cited from earlier work

For `Cc1cc(-c2cncc(-c3ccnc(Nc4cc(NC(=O)c5ccc(CN6CCN(C)CC6)cc5)ccc4C)n3)c2)on1` [Compound 207], which AUC(0-t) [1] is on record?
The AUC(0-t) was 1650 ± 1080 ng·h/mL.

What about the Cmax [1] of the same compound?
Its Cmax is 225 ± 83.8 ng/mL.

And the Tmax [1]?
Its Tmax is 5.3 ± 1.2 h.

What about the Vd [1] of the same compound?
The Vd was 6.5 ± 0.96 L/kg.

What about the bioavailability [1] of the same compound?
Its bioavailability is 32%.

What about the clearance [1] of the same compound?
Its clearance is 33.3 mL/min/kg.

And the half-life [1]?
Its half-life is 3.1 h.

And the half-life [2]?
The half-life was 0.292 h.

What about the fraction unbound (Serum protein binding) of the same compound?
The fraction unbound was 0.141.

And the “dopamine levels (protection of dopamine-secreting neurons)” value (mice treated with MPTP [3])?
The value was “protected dopamine-secreting neurons from degeneration”.

And the pole test latency (mice treated with MPTP [3])?
The pole test latency was “recovered to a near-normal latency time”.

For `Cc1ccc(NC(=O)c2ccc(CN3CCN(C)CC3)cc2)cc1Nc1nccc(-c2cncc(-n3cccn3)c2)n1` [Compound 303], which “Percent inhibition ABL” value (ABL) is on record?
Its value is 79%.

And the “Percent inhibition ARG/Abl2” value (ARG/Abl2)?
The value was 62%.

Which results are given for `Cc1ccc(NC(=O)c2ccc(CN3CCN(C)CC3)cc2)cc1Nc1nccc(-c2cncc(-c3oncc3C)c2)n1` [Compound 809]?
AUC(0-t) [1]: 1060 ng·h/mL; Cmax [1]: 170 ng/mL; Tmax [1]: 4 h; Vd [1]: 7.2 L/kg; bioavailability [1]: 24%; clearance [1]: 45 mL/min/kg; half-life [1]: 2.2 h; half-life [2]: 0.364 h; fraction unbound (Serum protein binding): 0.143; dopamine levels (protection of dopamine-secreting neurons) (mice treated with MPTP [3]): protected dopamine-secreting neurons from degeneration; pole test latency (mice treated with MPTP [3]): recovered to a near-normal latency time; dopaminergic neuron loss in A53T synuclein mice (A53T synuclein mice): fail to display the characteristics of dopaminergic neuron loss; Parkinson's-like disease after pre-formed alpha-synuclein fibrils [4]: fail to exhibit Parkinson's like disease

Which results are given for `Cc1ccnc(-c2cncc(-c3ccnc(Nc4cc(NC(=O)c5ccc(CN6CCN(C)CC6)cc5)ccc4C)n3)c2)c1` [Compound 830]?
inhibition at 0.5 µM (PDGFRa): 100%; AUC(0-t) [1]: 3720 ± 1090 ng·h/mL; Cmax [1]: 465 ± 115 ng/mL; Tmax [1]: 4 h; Vd [1]: 6.3 ± 1.1 L/kg; bioavailability [1]: 47%; clearance [1]: 21.7 mL/min/kg; half-life [1]: 3.6 h; half-life [2]: 0.326 h

Which inhibition at 0.5 µM (PDGFRa) does the source give for `Cc1ccc(NC(=O)c2ccc(CN3CCN(C)CC3)cc2)cc1Nc1nccc(-c2cncc(-c3ccnn3C)c2)n1` [Compound 831] here?
The inhibition at 0.5 µM was 100%.

What does the source list for `Cc1ccc(NC(=O)c2ccc(CN3CCN(C)CC3)cc2)cc1Nc1nccc(-c2cncc(-c3ccn(C)n3)c2)n1` [Compound 832]?
inhibition at 0.5 µM (PDGFRa): 100%; AUC(0-t) [1]: 3180 ± 930 ng·h/mL; Cmax [1]: 416 ± 84.5 ng/mL; Tmax [1]: 4 h; Vd [1]: 3.6 ± 1.8 L/kg; bioavailability [1]: 33%; clearance [1]: 21.7 mL/min/kg; half-life [1]: 2.6 h; half-life [2]: 0.408 h; dopamine levels (protection of dopamine-secreting neurons) (mice treated with MPTP [3]): protected dopamine-secreting neurons from degeneration; pole test latency (mice treated with MPTP [3]): recovered to a near-normal latency time

For `Cc1ccc(NC(=O)c2ccc(CN3CCNCC3)cc2)cc1Nc1nccc(-c2cncc(-c3ccncc3)c2)n1` [Compound 870], which inhibition at 0.5 µM (PDGFRa) is on record?
The inhibition at 0.5 µM was 100%.

For `Cc1ccc(NC(=O)c2ccc(CN3CCNCC3)cc2)cc1Nc1nccc(-c2cncc(-c3ccccn3)c2)n1` [Compound 880], which inhibition at 0.5 µM (PDGFRa) is on record?
Its inhibition at 0.5 µM is 100%.

With `Cc1ccc(NC(=O)c2ccc(CN3CCN(C)CC3)cc2)cc1Nc1nccc(-c2cncc(-c3ccns3)c2)n1` [Compound 8170] as the compound, how does the inhibition at 0.5 µM (PDGFRa) read?
Its inhibition at 0.5 µM is 100%.

For `Cc1cc(-c2cncc(-c3ccnc(Nc4cc(NC(=O)c5ccc(CN6CCN(C)CC6)cc5)ccc4C)n3)c2)sn1` [Compound 8190], which inhibition at 0.5 µM (PDGFRa) is on record?
The inhibition at 0.5 µM was 100%.

What does the source list for `Cc1ccc(NC(=O)c2ccc(CN3CCN(C)CC3)cc2)cc1Nc1nccc(-c2cncc(-c3cnns3)c2)n1` [Compound 8230]?
IC50 (c-Abl1): > 1000 nM; IC50 (c-Abl2): > 1000 nM

What does the source list for `Cc1ccc(NC(=O)c2ccc(CN3CCN(C)CC3)cc2)cc1Nc1nccc(-c2cncc(-c3snnc3C)c2)n1` [Compound 8240]?
IC50 (c-Abl1): > 1000 nM; IC50 (c-Abl2): > 1000 nM

For `Cc1ccc(NC(=O)c2ccc(CN3CCN(C)CC3)cc2)cc1Nc1nccc(-c2cncc(-c3nncs3)c2)n1` [Compound 8250], which inhibition at 0.5 µM (PDGFRa) is on record?
The inhibition at 0.5 µM was 100%.

For `Cc1nnc(-c2cncc(-c3ccnc(Nc4cc(NC(=O)c5ccc(CN6CCN(C)CC6)cc5)ccc4C)n3)c2)s1` [Compound 8260], which inhibition at 0.5 µM (PDGFRa) is on record?
The inhibition at 0.5 µM was 100%.

Which AUC(0-t) [1] does the source give for `Cc1ccc(NC(=O)c2ccc(CN3CCN(C)CC3)cc2)cc1Nc1nccc(-c2cncc(-c3nccs3)c2)n1` [Compound 8270] here?
Its AUC(0-t) is 1760 ± 268 ng·h/mL.

And the Cmax [1]?
The Cmax was 210 ± 31 ng/mL.

What about the Tmax [1] of the same compound?
Its Tmax is 5.3 h.

And the Vd [1]?
The Vd was 7.8 ± 0.7 L/kg.

And the bioavailability [1]?
Its bioavailability is 46%.

What about the clearance [1] of the same compound?
The clearance was 43.3 mL/min/kg.

What about the half-life [1] of the same compound?
The half-life was 3.3 h.

And the half-life [2]?
The half-life was 0.348 h.

What about the “dopamine levels (protection of dopamine-secreting neurons)” value (mice treated with MPTP [3]) of the same compound?
The value was “protected dopamine-secreting neurons from degeneration”.

And the pole test latency (mice treated with MPTP [3])?
Its pole test latency is “not statistically significant”.

For `Cc1cnc(-c2cncc(-c3ccnc(Nc4cc(NC(=O)c5ccc(CN6CCN(C)CC6)cc5)ccc4C)n3)c2)s1` [Compound 8280], which inhibition at 0.5 µM (PDGFRa) is on record?
The inhibition at 0.5 µM was 100%.

Which inhibition at 0.5 µM (PDGFRa) does the source give for `Cc1csc(-c2cncc(-c3ccnc(Nc4cc(NC(=O)c5ccc(CN6CCN(C)CC6)cc5)ccc4C)n3)c2)n1` [Compound 8290] here?
The inhibition at 0.5 µM was 100%.

For `Cc1ccc(NC(=O)c2ccc(CN3CCN(C)CC3)cc2)cc1Nc1nccc(-c2cccnc2)n1` [imatinib, reference compound], which AUC(0-t) [1] is on record?
The AUC(0-t) was 2730 ng·h/mL.

What about the Cmax [1] of the same compound?
The Cmax was 241 ng/mL.

And the Tmax [1]?
The Tmax was 4 h.

And the bioavailability [1]?
The bioavailability was about 53%.

What about the “effectiveness in animal models of Parkinson's Disease” value [5] of the same compound?
Its value is “appear effective”.

What does the source list for `Cc1cn(-c2cc(NC(=O)c3ccc(C)c(Nc4nccc(-c5cccnc5)n4)c3)cc(C(F)(F)F)c2)cn1` [nilotinib]?
effectiveness in animal models of Parkinson's Disease [5]: appear effective; neuroprotection in the acute MPTP-induced model of PD (mice treated with MPTP [6]): provide neuroprotection

Reference: patent US12629371B2, “Compositions and methods for inhibiting kinases” (Inhibikase Therapeutics, Inc., priority 2016, dated 2026)
